Source: US6921770B2 (priority 2000, dated 2005)

System: rice blast fungi
Format: in vivo, Pyricularia grisea

| Compound | Inhibiting Ratio (%) (at 250 ppm) |
| --- | --- |
| Br.Cn1c(CC(=O)Nc2ccccc2)csc1=Nc1ccc(Cl)c(C(F)(F)F)c1 [Compound 37, 2-(4-chloro-3-trifluoromethylphenylimino)-3-methyl-4-(N-phenylcarbamoylmethyl)-1,3-thiazol-4-ine hydrobromide] | 100 |
| Br.COc1ccc(NC(=O)Cc2csc(=Nc3ccc(F)cc3)n2C)cc1 [Compound 315, 2-(4-fluorophenylimino)-3-methyl-4-[N-(4-methoxyphenyl)carbamoylmethyl]-1,3-thiazol-4-ine hydrobromide] | 97 |
| 2-(3-chloro-4-fluorophenylimino)-3-methyl-4-[N-(methoxyphenyl)carbamoylmethyl]-1,3-thiazol-4-ine [Compound 336] | 96 |
| Br.Cc1ccc(NC(=O)Cc2csc(=Nc3cc(Cl)ccc3C)n2C)cc1 [Compound 34, 2-(5-chloro-2-methylphenylimino)-3-methyl-4-[N-(4-methylphenyl)carbamoylmethyl]-1,3-thiazol-4-ine hydrobromide] | 100 |
| Br.Cn1c(CC(=O)Nc2cccc(C(F)(F)F)c2)csc1=Nc1ccc(C(F)(F)F)cc1 [Compound 8, 2(4-trifluoromethylphenylimino)-3-methyl-4-[N-(3-trifluoromethylphenyl)carbamoylmethyl]-1,3-thiazol-4-ine hydrobromide] | 90 |
| Br.COc1ccc(N=c2scc(CC(=O)Nc3ccc(Cl)cc3)n2C)cc1 [Compound 308, 2-(4-methoxyphenylimino)-3-methyl-4-[N-(4-chlorophenyl)carbamoylmethyl]-1,3-thiazol-4-ine hydrobromide] | 99 |
| Cl.O=C(Cc1csc(=Nc2ccc(F)cc2F)n1C1CC1)Nc1ccc(Br)cc1 [Compound 258, 2-(2,4-difluorophenylimino)-3-cyclopropyl-4-[N-(4-bromophenyl)carbamoylmethyl]-1,3-thiazol-4-ine hydrochloride] | 91 |
| Br.Cn1c(CC(=O)Nc2ccccc2)csc1=Nc1ccc(Oc2ccccc2)cc1 [Compound 3, 2-(4-phenoxyphenylimino)-3-methyl-4-(N-phenylcarbamoylmethyl)-1,3-thiazol-4-ine hydrobromide] | 95 |
| Br.Cn1c(CC(=O)Nc2cccc(Cl)c2)csc1=Nc1ccc(C(F)(F)F)cc1 [Compound 20, 2-(4-trifluoromethylphenylimino)-3-methyl-4-[N-(3-chlorophenyl)carbamoylmethyl]-1,3-thiazol-4-ine hydrobromide] | 91 |
| Br.Cc1ccc(NC(=O)Cc2csc(=Nc3ccc(C)c(Cl)c3)n2C)cc1 [Compound 35, 2-(3-chloro-4-methylphenylimino)-3-methyl-4[N-(4-methylphenyl)carbamoylmethyl]-1,3-thiazol-4-ine hydrobromide] | 100 |
| Br.COc1ccc(N=c2scc(CC(=O)Nc3ccc(C)cc3)n2C)cc1 [Compound 29, 2-(4-methoxyphenylimino)-3-methyl-4-[N-(4-methylphenyl)carbamoylmethyl]-1,3-thiazol-4-ine hydrobromide] | 100 |
| Br.Cc1ccc(NC(=O)Cc2csc(=Nc3ccc(Br)cc3C)n2C)cc1 [Compound 33, 2-(4-bromo-2-methylphenylimino)-3-methyl-4-[N-(4-methylphenyl)carbamoylmethyl]-1,3-thiazol-4-ine hydrobromide] | 100 |
| COc1ccc(NC(=O)Cc2csc(=Nc3ccc(OC(F)(F)F)cc3)n2C)cc1.Cl [Compound 209, 2-(4-trifluoromethoxyphenylimino)-3-methyl-4-[N-(4-methoxyphenyl)carbamoylmethyl]-1,3-thiazol-4-ine hydrochloride] | 97 |
| Br.Cn1c(CC(=O)Nc2ccc(Cl)cc2)csc1=Nc1ccc(Br)cc1 [Compound 317, 2-(4-bromophenylimino)-3-methyl-4-[N-(4-chlorophenyl)carbamoylmethyl]-1,3-thiazol-4-ine hydrobromide] | 100 |
| Cl.Cn1c(CC(=O)Nc2ccc(C#N)cc2)csc1=Nc1ccc(OC(F)(F)F)cc1 [Compound 215, 2-(4-trifluoromethoxyphenylimino)-3-methyl-4-[N-(4-cyanophenyl)carbamoylmethyl]-4-thiazoline hydrochloride] | 93 |
| Cc1ccc(NC(=O)Cc2csc(=Nc3ccc(Oc4ccccc4)cc3)n2C)cc1Cl.Cl [Compound 240, 3-methyl-2-(4-phenoxyphenylimino)-4-[N-(3-chloro-4-methylphenyl)carbamoylmethyl]-1,3-thiazol-4-ine hydrochloride] | 88 |
| Br.Cn1c(CC(=O)Nc2ccc(Cl)cc2)csc1=Nc1ccc(Oc2ccccc2)cc1 [Compound 319, 2-(4-phenoxyphenylimino)-3-methyl-4-[N-(4-chlorophenyl)carbamoylmethyl]-1,3-thiazol-4-ine hydrobromide] | 100 |

| Compound | Inhibiting Ratio (%) (at 250 ppm) |
| --- | --- |
| CCCCc1ccc(N=c2scc(CC(=O)Nc3ccc(OC)cc3)n2C)cc1 [Compound 334, 2-[4-(n-butyl)phenylimino]-3-methyl-4-[N-(4-methoxyphenyl)carbamoylmethyl]-1,3-thiazol-4-ine] | 96 |
| Cc1ccc(N=c2scc(CC(=O)Nc3ccc(Br)cc3)n2C2CC2)c(C)c1.Cl [Compound 263, 2-(2,4-dimethylphenylimino)-3-cyclopropyl-4-[N-(4-bromophenyl)carbamoylmethyl]-1,3-thiazol-4-ine hydrochloride] | 96 |
| Cl.Cn1c(CC(=O)Nc2ccc(Br)cc2)csc1=Nc1cccc(Br)c1 [Compound 137, 2-(3-bromophenylimino)-3-methyl-4-[N-(4-bromophenyl)carbamoylmethyl]-1,3-thiazol-4-ine hydrochloride] | 97 |
| Br.COc1ccccc1NC(=O)Cc1csc(=Nc2ccc(C(C)(C)C)cc2)n1C [Compound 327, 2-(4-butyl(t-)phenylimino)-3-methyl-4-[N-(2-methoxyphenyl)carbamoylmethyl]-1,3-thiazol-4-ine hydrobromide] | 62 |
| Br.COc1ccc(NC(=O)Cc2csc(=Nc3ccc(C(C)(C)C)cc3)n2C)cc1 [Compound 326, 2-(4-butyl(t-)phenylimino)-3-methyl-4-[N-(4-methoxyphenyl)carbamoylmethyl]-1,3-thiazol-4-ine hydrobromide] | 97 |
| Br.COc1ccc(NC(=O)Cc2csc(=Nc3ccc(C)cc3)n2C)cc1 [Compound 309, 2-(4-methylphenylimino)-3-methyl-4-[N-(4-methoxyphenyl)carbamoylmethyl]-1,3-thiazol-4-ine hydrobromide] | 100 |
| Br.Cc1ccc(NC(=O)Cc2csc(=Nc3ccc(Cl)cc3F)n2C)cc1 [Compound 50, 2-(4-chloro-2-fluorophenylimino)-3-methyl-4-[N-(4-methylphenyl)carbamoylmethyl]-1,3-thiazol-4-ine hydrobromide] | 100 |
| Br.CC(C)Oc1ccc(N=c2scc(CC(=O)Nc3ccc(Cl)cc3)n2C)cc1 [Compound 314, 2-(4-isopropoxyphenylimino)-3-methyl-4-[N-(4-chlorophenyl)carbamoylmethyl]-1,3-thiazol-4-ine hydrobromide] | 100 |
| 2-(2-fluorophenylimino)-3-methyl-4-[N-(methoxyphenyl)carbamoylmethyl]-1,3-thiazol-4-ine [Compound 338] | 97 |
| Br.Cn1c(CC(=O)Nc2cccc(Cl)c2)csc1=Nc1ccc(Cl)cc1F [Compound 66, 2-(4-chloro-2-fluorophenylimino)-3-methyl-4-[N-(3-chlorophenyl)carbamoylmethyl]-1,3-thiazol-4-ine hydrobromide] | 96 |
| Br.Cc1ccc(NC(=O)Cc2csc(=Nc3cc(C(F)(F)F)cc(C(F)(F)F)c3)n2C)cc1 [Compound 54, 2-(3,5-ditrifluoromethylphenylimino)-3-methyl-4-[N-(4-methylphenyl)carbamoylmethyl]-1,3-thiazol-4-ine hydrobromide] | 96 |
| Br.Cn1c(CC(=O)Nc2ccccc2)csc1=Nc1ccc(F)c(Cl)c1 [Compound 43, 2-(3-chloro-4-fluorophenylimino)-3-methyl-4-(N-phenylcarbamoylmethyl)-1,3-thiazol-4-ine hydrobromide] | 93 |
| Cc1ccc(NC(=O)Cc2csc(=Nc3ccc(Br)cc3)n2C)cc1.Cl [Compound 162, 2-(4-bromophenylimino)-3-methyl-4-[N-(4-methylphenyl)carbamoylmethyl]-1,3-thiazol-4-ine hydrochloride] | 89 |
| Cc1ccc(NC(=O)Cc2csc(=Nc3ccccc3F)n2C)cc1.Cl [Compound 167, 2-(2-fluorophenylimino)-3-methyl-4-[N-(4-methylphenyl)carbamoylmethyl]-1,3-thiazol-4-ine hydrochloride] | 88 |
| Cl.Cn1c(CC(=O)Nc2ccc(Br)cc2)csc1=Nc1ccccc1F [Compound 148, 2-(2-fluorophenylimino)-3-methyl-4-[N-(4-bromophenyl)carbamoylmethyl]-1,3-thiazol-4-ine hydrochloride] | 95 |
| Cl.Cn1c(CC(=O)Nc2ccc(Br)cc2)csc1=Nc1ccc([N+](=O)[O-])cc1 [Compound 144, 2-(4-nitrophenylimino)-3-methyl-4-[N-(4-bromophenyl)carbamoylmethyl]-1,3-thiazol-4-ine hydrochloride] | 97 |
| Cl.Cn1c(CC(=O)Nc2ccccc2F)csc1=Nc1ccc(F)c(Cl)c1 [Compound 149, 2-(3-chloro-4-fluorophenylimino)-3-methyl-4-[N-(2-fluorophenyl)carbamoylmethyl]-1,3-thiazol-4-ine hydrochloride] | 95 |
